{"source": "patent US20240114940A1", "about": "“SACCHARIDE COMPOSITIONS HAVING SUCROSE-LIKE CHARACTERISTICS AND RELATED METHODS” (priority 2021, published 2024)", "assay_type_in_all_cases": "physicochemical", "key": {"[1]": {"assay": "Heating in a closed system (sealed microwave reactor tubes, 2 min), saccharides by ion-exchange chromatography", "conditions": "acidic conditions (pH 3 buffer), 177° C."}, "[2]": {"assay": "Non-enzymatic breakdown products in confectionery mixtures (milk, butter, saccharides)", "conditions": "final confectionery mixture"}, "[3]": {"assay": "Heating of saccharide solutions in an open system (observation, ion-exchange chromatography)", "method": "The following steps were performed to observe the impact of heat and pH on xylo-oligosaccharides: • 1. Four saccharide solutions comprising xylo-oligosaccharides of primarily degree of polymerization (DP) 2-6 (XOS) were created by dissolving saccharides in water, some solutions including an acidity regulator. The four solutions were: • a. XOS in water, pH 7 • b. XOS in water, pH 7 • c. XOS in water and lemon juice, pH 2 • d. XOS in water and baking soda, pH 9 • 2. The four solutions were heated, and the resulting products analyzed. For the four solutions: • a. XOS in water at pH 7 was heated to 110° C. (FIG. 1A). The solution was yellow when dissolved in water, and sticky, dissolving around 60° C. The solution formed soft, sticky threads at 110° C. […] XOS in water at pH 7 was heated to 177° C. (FIG. 1B). The solution got very dark at 177° C. and smelled burnt. The solution began darkening in color around 120° C., with the darkest color formation beginning at 150° C. The solution formed a hard crack consistency at 177° C. When water was added, the hard crack consistency re-dissolved slowly. • c. XOS in water and lemon juice at pH 2 was heated to 177° C. (FIG. 1C). This solution behaved the same as solution (b). • d. […]\nThe following steps were performed to observe the impact of heat and pH on cello-oligosaccharide: • 1. […] The four solutions were heated, and the resulting products analyzed. […]"}, "[4]": {"assay": "Breakdown products by GCMS after Maillard reaction in the presence of Histidine", "conditions": "160° C.", "method": "Controls were prepared addition of 1 mL of pH 7 buffer to the amino acids. The samples were rapidly heated to 160° C. and held at this temperature for 10 min. Samples were rapidly cooled afterwards, and absorbance at 500 nm was measured for each reaction mixture. Volatiles were analysed using gas chromatography mass spectrometry (GCMS) analysis. An Agilent Technologies 5975B Inert XL MSD gas chromatography, single quadruple mass spectrometer was used for analysis of volatiles. Samples were added to separate GCMS headspace vials and weighed. 0.03 g of 0.01% 3-heptanone in water was added and the vial was sealed for GCMS solid phase micro extraction (SPME) analysis. Samples were analysed in a randomized order. Samples were incubated and agitated at 250 RPM, at 60° C. for 15 min prior to SPME analysis of volatiles. The SPME fibre (50/30 DVB/CAR/PDMS, 23 Ga) extracted for 10 min, then thermally desorbed at 250° C. for 5 min. A 30 m×0.25 mm×0.25 μm HP-5MS column was used (Phenomenex, UK). Oven temperature settings: 31° C.-5 min, 5° C./min to 150° C., 30° C./min to 240° C. Inlet settings: 250° C., pressure 10.4 psi, flow 11.2 mL/min, split ratio 7:1. MS operated in full scan mode from 40 to 400 m/z with a scan time of 0.2s. The peak area of the aroma compounds was compared to the peak of the internal standard 3-heptanone and corrected for the weight of the sample.\nThe concentration of the different classes of Maillard reaction breakdown products is presented in Tables 9B-E. The same data as Tables 9B-E is also presented in FIG. 27. Concentrations are in parts per billion of the difference non-enzymatic breakdown products for the different compositions at 160° C. analysed by GCMS."}}, "data": [{"compound": "OC[C@H]1O[C@@](CO)(O[C@H]2O[C@H](CO)[C@@H](O)[C@H](O)[C@H]2O)[C@@H](O)[C@@H]1O", "note": "[Sucrose]", "values": [{"measurement": "sucrose degraded", "setting": "[1]", "result": "around 85%"}, {"measurement": "Concentration of 3-methyl-3-(2-oxopropylamino)butan-2-one", "setting": "[2]", "result": 0.00, "unit": "ppb"}, {"measurement": "Concentration of Acetic acid", "setting": "[2]", "result": 0.01, "unit": "ppb"}, {"measurement": "Concentration of Benzaldehyde", "setting": "[2]", "result": 0.13, "unit": "ppb"}, {"measurement": "Concentration of Furfural", "setting": "[2]", "result": 0.01, "unit": "ppb"}, {"measurement": "Concentration of Isovaleraldehyde", "setting": "[2]", "result": 0.17, "unit": "ppb"}, {"measurement": "degradation after heating", "setting": "[3]; 177° C. at pH 7 and pH 4, open system", "result": "degrades"}, {"measurement": "degradation after heating", "setting": "[3]; 177° C. at pH 10, open system", "result": "does not degrade"}, {"measurement": "2-Butanone concentration", "setting": "[4]; Carbonyls/ketones", "result": 1.44, "unit": "ppb"}, {"measurement": "2-Propanone, 1-hydroxy- concentration", "setting": "[4]; Carbonyls/ketones", "result": 14.57, "unit": "ppb"}, {"measurement": "Diacetyl (2,3-Butanedione) concentration", "setting": "[4]; Carbonyls/ketones", "result": 1.62, "unit": "ppb"}, {"measurement": "Furan, 2-methyl- concentration", "setting": "[4]; Furans", "result": 0, "unit": "ppb"}, {"measurement": "Furfural concentration", "setting": "[4]; Furans", "result": 0.03, "unit": "ppb"}, {"measurement": "Pyrazine, 2,5-diethyl- concentration", "setting": "[4]; Pyrazines", "result": 0.48, "unit": "ppb"}, {"measurement": "Pyrazine, 2,5-dimethyl- concentration", "setting": "[4]; Pyrazines", "result": 175.23, "unit": "ppb"}, {"measurement": "Pyrazine, 2-ethyl-5-methyl- concentration", "setting": "[4]; Pyrazines", "result": 34.95, "unit": "ppb"}, {"measurement": "Pyrazine, ethyl- concentration", "setting": "[4]; Pyrazines", "result": 0.14, "unit": "ppb"}, {"measurement": "Pyrazine, methyl- concentration", "setting": "[4]; Pyrazines", "result": 0, "unit": "ppb"}]}]}
